Reference: patent publication US20220169637A1, “SOLID FORMS OF ENCEQUIDAR MESYLATE AND PROCESSES THEREOF” (DR. REDDY'S LABORATORIES LIMITED, priority 2019, published 2022)
Counter-ions that a name gives are not always drawn.

Assay: Stress stability of crystalline Form EM1 (moisture content, XRPD pattern)
Assay type: physicochemical
Experimental: In an embodiment, the open sample of Form EM1 is stable at 25° C. for at least 24 hours. In an embodiment, the open sample of Form EM1 is stable under heating in air tray drier at 60° C. for at least 24 hours. In an embodiment, the open sample of Form EM1 is stable at 40° C. and 75% RH condition for at least 24 hours. In an embodiment, the open sample of Form EM1 is stable at 25° C. and 85% RH for at least 24 hours. In an embodiment, the open sample of Form EM1 is stable under UV exposure for at least 16 hours.

COc1cc2c(cc1OC)CN(CCc1ccc(-n3nnc(-c4cc(OC)c(OC)cc4NC(=O)c4cc(=O)c5ccccc5o4)n3)cc1)CC2 [Form EM1, Encequidar mesylate]
Moisture content (%) (Initial): 6.95% | XRPD pattern (Initial): Form EM1 | Moisture content (%) (Open 25° C., 24 hours): 5.94% | XRPD pattern (Open 25° C., 24 hours): Form EM1 | Moisture content (%) (Open 40° C./75% RH, 24 hours): 5.71% | XRPD pattern (Open 40° C./75% RH, 24 hours): Form EM1 | Moisture content (%) (Open 60° C., 24 hours): 5.5% | XRPD pattern (Open 60° C., 24 hours): Form EM1 | Moisture content (%) (UV exposed, 24 hours): 6.26% | XRPD pattern (UV exposed, 24 hours): Form EM1 | Time stable (open sample at 25° C.): at least 24 hours | Time stable (open sample at 25° C. and 85% RH): at least 24 hours | Time stable (open sample at 40° C. and 75% RH): at least 24 hours | Time stable (open sample under UV exposure): at least 16 hours | Time stable (open sample, heating in air tray drier at 60° C.): at least 24 hours | Stability under tabulated stress conditions (stress conditions for 24 hours): found to be stable | Change in weight or moisture content and X-ray diffraction patterns (stressed samples, FIG. 5): No significant change
